For 19 molecules, EC50 and IC50 results are on record in US20250320213A1, “Nitrogen-Containing Heterocyclic Compounds” (Pfizer Inc., priority 2024, published 2025).

One experiment deals with T1, STAT6 (Homo sapiens, UniProt P42226).
T1 construct: stably transfected HaCaT keratinocyte cell line, which expresses NanoLuc luciferase reporter gene under the transcriptional control of the STAT6 responsive promoter; endogenous in cells; host or cells: HaCaT keratinocyte reporter cell line (stably transfected with a NanoLuc reporter)
T1 sequence (P42226 1-847): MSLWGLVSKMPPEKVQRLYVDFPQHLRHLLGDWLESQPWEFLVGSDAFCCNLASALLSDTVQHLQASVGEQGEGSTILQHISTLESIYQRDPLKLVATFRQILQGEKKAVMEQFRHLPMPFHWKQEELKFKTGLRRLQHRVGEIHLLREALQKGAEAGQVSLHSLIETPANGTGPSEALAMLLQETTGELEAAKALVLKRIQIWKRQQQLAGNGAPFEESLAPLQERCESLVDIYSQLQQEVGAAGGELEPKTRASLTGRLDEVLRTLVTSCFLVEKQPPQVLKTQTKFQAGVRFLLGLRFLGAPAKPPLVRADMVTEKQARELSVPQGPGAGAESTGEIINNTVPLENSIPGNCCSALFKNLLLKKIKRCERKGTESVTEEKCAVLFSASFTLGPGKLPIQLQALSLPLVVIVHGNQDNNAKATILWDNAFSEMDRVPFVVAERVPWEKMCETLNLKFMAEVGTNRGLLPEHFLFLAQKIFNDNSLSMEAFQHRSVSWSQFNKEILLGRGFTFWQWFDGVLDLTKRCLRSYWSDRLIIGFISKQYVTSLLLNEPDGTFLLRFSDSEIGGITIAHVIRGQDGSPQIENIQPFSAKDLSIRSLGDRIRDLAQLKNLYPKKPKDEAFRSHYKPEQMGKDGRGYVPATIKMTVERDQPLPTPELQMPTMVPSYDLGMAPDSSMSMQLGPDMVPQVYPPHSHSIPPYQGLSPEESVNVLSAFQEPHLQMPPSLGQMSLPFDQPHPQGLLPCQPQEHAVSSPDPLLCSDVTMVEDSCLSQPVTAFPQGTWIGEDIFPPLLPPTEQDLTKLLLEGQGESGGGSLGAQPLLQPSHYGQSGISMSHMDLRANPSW
Kind of experiment: STAT6 Reporter Luciferase Assay (IL-13 stimulated HaCaT keratinocyte NanoLuc reporter cells). The class given is cell-based. Conditions: STAT6 NanoLuc luciferase reporter, IL-13 stimulated HaCaT keratinocyte cells; read-out: Reporter EC50. The procedure, abridged:
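Luminescence from a NanoLuc reporter driven by the STAT6-responsive IL-13Ra2 promoter in HaCaT keratinocytes serves as the read-out. Compounds are given 2 h before a 4 h stimulation with 0.12 nM IL-13.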

For experiment [1], the system named is CCL17 secretion in peripheral human whole blood. Briefly: Human Whole Blood (HWB) CCL17 TR-FRET Assay (IL-13 stimulated CCL17 secretion). Conditions: inhibition of CCL17 secretion in human whole blood, 10 ng/mL IL13, 48 hours. The class given is cell-based. The gist of the method:
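IC50 values reflect inhibition of IL-13-driven CCL17 release in human whole blood. Blood was preincubated with compound 2 h, stimulated 48 h at 37 °C with IL-13 (10 ng/mL final), and serum CCL17 was measured by TR-FRET.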

pEC50, pIC50: −log10 of the molar value. Where a name gives a salt, the structure may show the parent alone.

Consider `Cc1nc(C(=O)NCc2ccc(NC(=O)N(C)C)cc2)c2n1CCN(c1ccc(C(=O)N(C)C)cn1)C2` [Example 5, 7-(5-(Dimethylcarbamoyl)pyridin-2-yl)-N-(4-(3,3-dimethylureido)benzyl)-3-methyl-5,6,7,8-tetrahydroimidazo[1,5-a]pyrazine-1-carboxamide], for which the pEC50 at STAT6 is 6.91. The same molecule showed a pIC50 in experiment [1] of 6.03.
Regarding `CN(C)C(=O)Nc1ccc(CNC(=O)c2nn(C3CC3)c3c2CN(c2ccc(C(=O)N(C)C)cn2)CC3)cc1` [Example 10, 1-Cyclopropyl-5-(5-(dimethylcarbamoyl)pyridin-2-yl)-N-(4-(3,3-dimethylureido)benzyl)-4,5,6,7-tetrahydro-1H-pyrazolo[4,3-c]pyridine-3-carboxamide trifluoroacetate], the pEC50 on STAT6 was 7.96. In experiment [1] (Homo sapiens, 48 h), this molecule gave a pIC50 of 7.03.
As to `CC(C)n1nc(C(=O)NCc2ccc(-c3ncc[nH]3)cc2)c2c1CCN(c1ccc(C(=O)N(C)C)cn1)C2` [Example 11, N-(4-(1H-imidazol-2-yl)benzyl)-5-(5-(dimethylcarbamoyl)pyridin-2-yl)-1-isopropyl-4,5,6,7-tetrahydro-1H-pyrazolo[4,3-c]pyridine-3-carboxamide], the pEC50 on STAT6 was 7.80. The same molecule gave a pIC50 in experiment [1] (Homo sapiens, 48 h) of 6.69.
Turning to `CN(C)C(=O)Nc1ccc(CNC(=O)c2nn(C)c3c2CN(c2ccc(-c4nccn4C)cn2)CC3)cc1` [Example 12, N-(4-(3,3-Dimethylureido)benzyl)-1-methyl-5-(5-(1-methyl-1H-imidazol-2-yl)pyridin-2-yl)-4,5,6,7-tetrahydro-1H-pyrazolo[4,3-c]pyridine-3-carboxamide], at STAT6, the pEC50 is 7.80. The same molecule had a pIC50 in experiment [1] (Homo sapiens, 48 h) of 7.03.
On to `CN(C)C(=O)Nc1ccc(CNC(=O)c2nc(C3CC3)n3c2CN(c2ccc(C(=O)N(C)C)cn2)CC3)cc1` [Example 13, 3-cyclopropyl-7-(5-(dimethylcarbamoyl)pyridin-2-yl)-N-(4-(3,3-dimethylureido)benzyl)-5,6,7,8-tetrahydroimidazo[1,5-a]pyrazine-1-carboxamide], for which the pEC50 at STAT6 is 7.77. In experiment [1] (Homo sapiens, 48 h), this molecule showed a pIC50 of 7.08.
For `CN(C)C(=O)Nc1ccc(CNC(=O)c2nn(C)c3c2CN(c2ccc(C(=O)N(C)C)cn2)CC3)cc1` [Example 14, 5-(5-(dimethylcarbamoyl)pyridin-2-yl)-N-(4-(3,3-dimethylureido)benzyl)-1-methyl-4,5,6,7-tetrahydro-1H-pyrazolo[4,3-c]pyridine-3-carboxamide], the pEC50 at STAT6 is 7.54. Further, the negative-log IC50 (pIC50) in experiment [1] (Homo sapiens, 48 h) was 6.59.
Turning to `CNC(=O)c1ccc(CNC(=O)c2nn(C)c3c2CN(c2ccc(C(=O)N(C)C)cn2)CC3)cc1` [Example 15, 5-(5-(dimethylcarbamoyl)pyridin-2-yl)-1-methyl-N-(4-(methylcarbamoyl)benzyl)-4,5,6,7-tetrahydro-1H-pyrazolo[4,3-c]pyridine-3-carboxamide], at STAT6, the pEC50 was 6.80. In experiment [1] (Homo sapiens, 48 h), this molecule gave a pIC50 of 5.93.
Turning to `CNC(=O)c1ccc(CNC(=O)c2nc(C3CC3)n3c2CN(c2ccc(C(=O)N(C)C)cn2)CC3)cc1` [Example 16, 3-cyclopropyl-7-(5-(dimethylcarbamoyl)pyridin-2-yl)-N-(4-(methylcarbamoyl)benzyl)-5,6,7,8-tetrahydroimidazo[1,5-a]pyrazine-1-carboxamide], the pEC50 at STAT6 is 6.58. The same molecule had a pIC50 in experiment [1] (Homo sapiens, 48 h) of 6.10.
In the case of `CN(C)C(=O)Nc1ccc(CNC(=O)c2ncn3c2CN(c2ccc(C(=O)N(C)C)cn2)CC3)cc1` [Example 17, 7-(5-(dimethylcarbamoyl)pyridin-2-yl)-N-(4-(3,3-dimethylureido)benzyl)-5,6,7,8-tetrahydroimidazo[1,5-a]pyrazine-1-carboxamide], at STAT6, the pEC50 was 6.49. In experiment [1] (Homo sapiens, 48 h), this molecule showed a pIC50 of 6.54.
`CN(C)C(=O)Nc1ccc(CNC(=O)c2n[nH]c3c2CN(c2ccc(C(=O)N(C)C)cn2)CC3)cc1` [Example 18, 5-(5-(Dimethylcarbamoyl)pyridin-2-yl)-N-(4-(3,3-dimethylureido)benzyl)-4,5,6,7-tetrahydro-1H-pyrazolo[4,3-c]pyridine-3-carboxamide]: the pEC50 at STAT6 was 5.85. Further, the pIC50 in experiment [1] (Homo sapiens, 48 h) was 5.86.
Regarding `CN(C)C(=O)Nc1ccc(CNC(=O)c2c3c(nn2C2CC2)CCN(c2ccc(C(=O)N(C)C)cn2)C3)cc1` [Example 19, 2-cyclopropyl-5-(5-(dimethylcarbamoyl)pyridin-2-yl)-N-(4-(3,3-dimethylureido)benzyl)-4,5,6,7-tetrahydro-2H-pyrazolo[4,3-c]pyridine-3-carboxamide], on STAT6, the pEC50 was below 5.00. The molecule also had a pIC50 in experiment [1] (Homo sapiens, 48 h) of 5.47.
Turning to `CN(C)C(=O)Nc1ccc(CNC(=O)c2nn(C3(C)CC3)c3c2CN(c2ccc(C(=O)N(C)C)cn2)CC3)cc1` [Example 20, 5-(5-(dimethylcarbamoyl)pyridin-2-yl)-N-(4-(3,3-dimethylureido)benzyl)-1-(1-methylcyclopropyl)-4,5,6,7-tetrahydro-1H-pyrazolo[4,3-c]pyridine-3-carboxamide], at STAT6, the pEC50 is 8.22. Besides, the pIC50 in experiment [1] (Homo sapiens, 48 h) is 7.14.
`CCn1nc(C(=O)NCc2ccc(-c3ncc[nH]3)cc2)c2c1CCN(c1ccc(C(=O)N(C)C)cn1)C2` [Example 21, N-(4-(1H-imidazol-2-yl)benzyl)-5-(5-(dimethylcarbamoyl)pyridin-2-yl)-1-ethyl-4,5,6,7-tetrahydro-1H-pyrazolo[4,3-c]pyridine-3-carboxamide]: at STAT6, the pEC50 is 7.48. Besides, the pIC50 in experiment [1] (Homo sapiens, 48 h) is 6.66.
`CN(C)C(=O)Nc1ccc(CNC(=O)c2nc(C(F)(F)F)n3c2CN(c2ccc(C(=O)N(C)C)cn2)CC3)cc1` [Example 22, 7-(5-(dimethylcarbamoyl)pyridin-2-yl)-N-(4-(3,3-dimethylureido)benzyl)-3-(trifluoromethyl)-5,6,7,8-tetrahydroimidazo[1,5-a]pyrazine-1-carboxamide]: the pEC50 at STAT6 is 7.68. The pIC50 in experiment [1] (Homo sapiens, 48 h) was 7.27.
As to `CCn1nc(C(=O)NCc2ccc(NC(=O)N(C)C)cc2)c2c1CCN(c1ccc(-c3ncnn3C)cn1)C2` [Example 23, N-(4-(3,3-Dimethylureido)benzyl)-1-ethyl-5-(5-(1-methyl-1H-1,2,4-triazol-5-yl)pyridin-2-yl)-4,5,6,7-tetrahydro-1H-pyrazolo[4,3-c]pyridine-3-carboxamide], on STAT6, the pEC50 was 8.22. The molecule further gave a pIC50 in experiment [1] (Homo sapiens, 48 h) of 7.21.
The matching figures for `CN(C)C(=O)Nc1ccc(CNC(=O)c2nnn3c2CN(c2ccc(C(=O)N(C)C)cn2)CC3)cc1` [Example 24, 5-(5-(dimethylcarbamoyl)pyridin-2-yl)-N-(4-(3,3-dimethylureido)benzyl)-4,5,6,7-tetrahydro-[1,2,3]triazolo[1,5-a]pyrazine-3-carboxamide]: 6.42 and 6.46.
In the same order, the values of `CN(C)C(=O)Nc1ccc(CNC(=O)c2csc3c2CN(c2ccc(C(=O)N(C)C)cn2)CC3)cc1` [Example 25, 5-(5-(dimethylcarbamoyl)pyridin-2-yl)-N-(4-(3,3-dimethylureido)benzyl)-4,5,6,7-tetrahydrothieno[3,2-c]pyridine-3-carboxamide] are 6.79 and 5.83.
On to `CC(C)n1nc(C(=O)NCc2ccc(NC(=O)N(C)C)cc2)c2c1CCN(c1ccc(-c3ncnn3C)cn1)C2` [Example 27, N-(4-(3,3-dimethylureido)benzyl)-1-isopropyl-5-(5-(1-methyl-1H-1,2,4-triazol-5-yl)pyridin-2-yl)-4,5,6,7-tetrahydro-1H-pyrazolo[4,3-c]pyridine-3-carboxamide], for which the pEC50 at STAT6 is 8.22. Further, in experiment [1] (Homo sapiens, 48 h), the pIC50 was 7.04.
As to `CN(C)C(=O)Nc1ccc(CNC(=O)c2noc3c2CN(c2ccc(C(=O)N(C)C)cn2)CC3)cc1` [Example 28, 5-(5-(dimethylcarbamoyl)pyridin-2-yl)-N-(4-(3,3-dimethylureido)benzyl)-4,5,6,7-tetrahydroisoxazolo[4,5-c]pyridine-3-carboxamide], the pEC50 at STAT6 is 7.34. Besides, the pIC50 in experiment [1] (Homo sapiens, 48 h) was 6.50.
